From ChEMBL document CHEMBL4334438, “Discovery of novel glycogen synthase kinase-3α inhibitors: Structure-based virtual screening, preliminary SAR and biological evaluation for treatment of acute myeloid leukemia” (Eur J Med Chem, 2019) come the findings set out here.

Calls of active or inactive are those of the source. The calls are words filed in the database; no cut-off is given here.

Data set [1] relates to HL-60. Kind of data set: Induction of monocytic differentiation in human HL60 monocytic assessed as increase in CD11c-APC positive cells at 30 uM after 6 days by flow cytometry analysis. It counts as functional, cell-based.
The target in data set [2] is Citron Rho-interacting kinase (Homo sapiens) (UniProt O14578). The data set is described as follows: Inhibition of recombinant human CRIK assessed as residual activity at 1 uM KKLRRTLSVA as substrate incubated 120 mins by scintillation counting method relative to control.
Data set [3] concerns the target Serine/threonine-protein kinase MRCK gamma (Homo sapiens) (UniProt Q6DT37). Kind of data set: Inhibition of recombinant human MRCKgamma assessed as residual activity at 1 uM using KKRNRTLTV as substrate measured after 40 mins in presence of [gamma33P]ATP by scintillation counting method relative to control.
The test system of data set [4] is NB-4. The data set is described as follows: Induction of cell differentiation in human NB4 cells assessed as increase in CD11b-APC-Cy7 positive cells after 6 days by flow cytometry analysis. It counts as functional, cell-based.
Data set [5] has as its system Tyrosine-protein kinase ABL1 (Homo sapiens), P00519 [Q252H]. Kind of data set: Inhibition of human ABL1 Q252H mutant (27 to end residues) assessed as residual activity at 1 uM using EAIYAAPFAKKK as substrate incubated for 40 mins in presence of [gamma-33ATP] by scintillation counting based radiometry assay relative to control.
The target in data set [6] is Serine/threonine-protein kinase OSR1 (Homo sapiens) (UniProt O95747). The data set is described as follows: Inhibition of recombinant human OSR1 assessed as residual activity at 1 uM relative to control.
Data set [7] has as its system NB-4. The data set is described as follows: Induction of cell differentiation in human NB4 cells assessed as increase in CD14-FITC positive cells after 6 days by flow cytometry analysis. It counts as functional, cell-based.
Data set [8] addresses STE20/SPS1-related proline-alanine-rich protein kinase (Homo sapiens) (UniProt Q9UEW8). Kind of data set: Inhibition of recombinant human STK39 assessed as residual activity at 1 uM in presence of [gamma33P]ATP by scintillation counting based radiometry assay relative to control.
In data set [9] the test system is NB-4. Kind of data set: Antiproliferative activity against human NB4 cells assessed as reduction in viability after 3 days by SRB assay. It counts as functional, cell-based.
Data set [10] concerns the target Serine/threonine-protein kinase LATS1 (Homo sapiens) (UniProt O95835). Kind of data set: Inhibition of human LATS1 assessed as residual activity at 1 uM by radiometric assay relative to control.
Data set [11] has as its target Serine/threonine-protein kinase DCLK1 (Homo sapiens) (UniProt O15075). The data set is described as follows: Inhibition of recombinant human DCAMKL1 assessed as residual activity at 1 uM radiometric assay relative to control.
The subject of data set [12] is HL-60. Kind of data set: Antiproliferative activity against human HL60 cells assessed as reduction in viability after 3 days by SRB assay. The format is functional, cell-based.
The target in data set [13] is Serine/threonine-protein kinase TAO2 (Homo sapiens) (UniProt Q9UL54). Kind of data set: Inhibition of human TAO2 (1 to 320 residues) assessed as residual activity at 1 uM using myelin basic protein as substrate measured after 40 mins in presence of [gamma33P]ATP by scintillation counting method relative to control.
The target of data set [14] is Casein kinase I isoform epsilon (Homo sapiens) (UniProt P49674). Kind of data set: Inhibition of recombinant human CK1epsilon assessed as residual activity at 1 uM using KRRRALS(p)VASLPGL as substrate incubated for 120 mins in presence of [gamma-33ATP] by scintillation counting based radiometry assay relative to control.
The test system of data set [15] is HL-60. The data set is described as follows: Induction of cell death in human HL60 cells at 10 to 30 uM after 6 days by trypan blue assay. The format is cell-based. The note with it: hl-60, 144 h.
Data set [16] deals with HL-60. Kind of data set: Induction of cell differentiation in human HL60 cells assessed as increase in CD11c-APC positive cells after 6 days by flow cytometry analysis. The format is functional, cell-based.
Data set [17] concerns the target BMP-2-inducible protein kinase (Homo sapiens) (UniProt Q9NSY1). Kind of data set: Inhibition of recombinant human BIKe assessed as residual activity at 1 uM using peptide as substrate incubated for 120 mins in presence of [gamma-33ATP] by scintillation counting based radiometry assay relative to control.
In data set [18] the test system is HL-60. Kind of data set: Induction of cell differentiation in human HL60 cells assessed as increase in CD11b-APC-Cy7 positive cells after 6 days by flow cytometry analysis. The format is functional, cell-based.
Data set [19] addresses Mitogen-activated protein kinase kinase kinase kinase 2 (Homo sapiens) (UniProt Q12851). Kind of data set: Inhibition of recombinant human GCK (1 to 473 residues) assessed as residual activity at 1 uM using myelin basic protein as substrate at 40 mins in presence of [gamma-33ATP] by scintillation counting based radiometry assay relative to control.
For data set [20], the system named is HL-60. Kind of data set: Effect on total beta-catenin level in human HL60 cells at 1 to 30 uM after 24 hrs by Western blot analysis. The note with it: hl-60, 24 h. It counts as ADME, cell-based.
Data set [21] concerns the target Mitogen-activated protein kinase kinase kinase 21 (Homo sapiens) (UniProt Q5TCX8). Kind of data set: Inhibition of recombinant human MLK4 assessed as residual activity at 1 uM using by radiometry assay relative to control.
The target of data set [22] is T1, Glycogen synthase kinase-3 alpha (Homo sapiens, UniProt P49840). Kind of data set: Inhibition of GSK-3alpha phosphorylation at Y279 residue in human NB4 cells after 24 hrs by Western blot analysis. The format is cell-based.
The nature of data set [23]: Activation of wnt/beta-catenin signalling pathway in human HL60 cells assessed as stabilization of beta-catenin at 1 to 30 uM after 24 hrs by Western blot analysis. The format is cell-based.
Data set [24] has as its target T1, Glycogen synthase kinase-3 alpha. Kind of data set: Inhibition of GSK-3alpha phosphorylation at Y279 residue in human HL60 cells after 24 hrs by Western blot analysis. The format is cell-based.
The test system of data set [25] is NB-4. The data set is described as follows: Effect on total beta-catenin level in human NB4 cells at 1 to 30 uM after 24 hrs by Western blot analysis. It counts as ADME, cell-based. The note with it: nb-4, 24 h.
For a further data set, the species on record is Homo sapiens. Kind of data set: Selectivity index, ratio of IC50 for inhibition of human GSK-3beta H350L mutant (2 to end residues) to IC50 for inhibition of human GSK-3alpha S449A mutant (2 to end residues).
The subject of data set [26] is HL-60. The data set is described as follows: Induction of cell differentiation in human HL60 cells assessed as increase in CD14-FITC positive cells after 6 days by flow cytometry analysis. It counts as functional, cell-based.
For data set [27], the system named is NB-4. The data set is described as follows: Inhibition of colony formation in human NB4 cells preincubated for 72 hrs followed by compound washout and measured after 7 to 10 days. The format is functional, cell-based.
The target of data set [28] is Serine/threonine-protein kinase WNK4 (Homo sapiens) (UniProt Q96J92). Kind of data set: Inhibition of human WNK4 assessed as residual activity at 1 uM using myelin basic protein as substrate measured after 120 mins in presence of [gamma33P]ATP by scintillation counting method relative to control.
Data set [29] has as its system NB-4. Kind of data set: Induction of cell death in human NB4 cells at 10 to 30 uM after 6 days by trypan blue assay. The format is cell-based. The note with it: nb-4, 144 h.
Data set [30] is described as follows: Activation of wnt/beta-catenin signalling pathway in human NB4 cells assessed as stabilization of beta-catenin at 1 to 30 uM after 24 hrs by Western blot analysis. It counts as cell-based.
The target in data set [31] is Dual specificity mitogen-activated protein kinase kinase 7 (Homo sapiens) (UniProt O14733). The data set is described as follows: Inhibition of recombinant human MKK7beta (2 to end residues) assessed as residual activity at 1 uM using inactive JNK1a1 as substrate incubated for 40 mins in presence of [gamma-33ATP by scintillation counting based radiometry assay relative to control.

Chain of Mitogen-activated protein kinase kinase kinase kinase 2 (Homo sapiens) (Q12851 whole entry, the tested form may be a part): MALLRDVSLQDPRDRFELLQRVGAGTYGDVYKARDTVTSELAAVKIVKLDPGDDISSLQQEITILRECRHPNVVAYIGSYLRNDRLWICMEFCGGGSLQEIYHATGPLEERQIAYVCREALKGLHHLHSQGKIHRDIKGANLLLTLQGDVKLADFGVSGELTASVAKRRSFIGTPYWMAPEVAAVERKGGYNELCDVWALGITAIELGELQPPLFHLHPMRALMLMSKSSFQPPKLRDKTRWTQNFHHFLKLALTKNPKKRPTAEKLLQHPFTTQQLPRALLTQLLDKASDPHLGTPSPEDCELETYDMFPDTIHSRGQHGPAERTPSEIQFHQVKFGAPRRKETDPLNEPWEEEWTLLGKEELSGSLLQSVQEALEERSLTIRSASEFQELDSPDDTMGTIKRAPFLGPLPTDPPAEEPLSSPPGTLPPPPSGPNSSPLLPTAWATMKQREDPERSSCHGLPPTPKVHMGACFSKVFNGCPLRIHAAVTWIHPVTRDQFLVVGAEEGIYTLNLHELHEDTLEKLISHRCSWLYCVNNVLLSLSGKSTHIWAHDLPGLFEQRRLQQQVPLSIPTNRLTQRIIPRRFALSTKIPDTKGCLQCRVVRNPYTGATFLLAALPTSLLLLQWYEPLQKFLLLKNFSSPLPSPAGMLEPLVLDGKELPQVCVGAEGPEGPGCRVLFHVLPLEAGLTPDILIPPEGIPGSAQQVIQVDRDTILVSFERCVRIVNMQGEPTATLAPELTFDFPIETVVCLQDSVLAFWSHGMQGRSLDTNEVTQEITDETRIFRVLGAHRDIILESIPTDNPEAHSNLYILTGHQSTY
Chain of Serine/threonine-protein kinase TAO2 (Homo sapiens) (Q9UL54 whole entry, the tested form may be a part, canonical isoform): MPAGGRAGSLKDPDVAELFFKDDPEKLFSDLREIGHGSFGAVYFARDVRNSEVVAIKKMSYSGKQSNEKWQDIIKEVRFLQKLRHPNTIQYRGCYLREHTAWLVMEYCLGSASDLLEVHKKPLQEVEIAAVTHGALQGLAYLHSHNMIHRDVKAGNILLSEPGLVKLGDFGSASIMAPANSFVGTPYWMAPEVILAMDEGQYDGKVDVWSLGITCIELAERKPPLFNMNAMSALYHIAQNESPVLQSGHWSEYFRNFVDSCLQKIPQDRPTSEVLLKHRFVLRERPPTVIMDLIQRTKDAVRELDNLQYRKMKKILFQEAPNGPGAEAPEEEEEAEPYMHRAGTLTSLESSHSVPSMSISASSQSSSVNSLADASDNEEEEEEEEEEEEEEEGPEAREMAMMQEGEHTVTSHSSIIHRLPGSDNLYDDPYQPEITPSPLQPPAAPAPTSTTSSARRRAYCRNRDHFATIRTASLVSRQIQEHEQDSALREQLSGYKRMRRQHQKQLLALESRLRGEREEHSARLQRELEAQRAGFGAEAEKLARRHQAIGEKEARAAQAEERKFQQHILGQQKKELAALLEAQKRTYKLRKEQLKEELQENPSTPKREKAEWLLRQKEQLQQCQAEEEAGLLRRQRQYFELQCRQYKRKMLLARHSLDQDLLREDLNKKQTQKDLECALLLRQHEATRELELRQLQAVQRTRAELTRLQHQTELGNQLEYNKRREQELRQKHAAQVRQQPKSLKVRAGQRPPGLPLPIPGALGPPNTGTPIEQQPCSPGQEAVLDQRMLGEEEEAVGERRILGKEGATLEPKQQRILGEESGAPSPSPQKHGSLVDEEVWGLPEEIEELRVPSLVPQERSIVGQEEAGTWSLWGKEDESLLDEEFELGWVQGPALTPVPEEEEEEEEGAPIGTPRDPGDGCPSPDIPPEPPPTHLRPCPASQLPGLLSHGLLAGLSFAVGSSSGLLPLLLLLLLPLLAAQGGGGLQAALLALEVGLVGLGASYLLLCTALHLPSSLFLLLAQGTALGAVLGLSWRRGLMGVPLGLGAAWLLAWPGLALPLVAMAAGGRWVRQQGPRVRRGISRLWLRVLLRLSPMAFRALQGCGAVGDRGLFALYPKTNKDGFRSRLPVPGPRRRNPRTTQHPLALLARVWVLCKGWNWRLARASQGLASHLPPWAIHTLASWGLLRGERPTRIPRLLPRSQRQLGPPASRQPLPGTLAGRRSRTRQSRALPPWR
T1 sequence (P49840 2-483 limits assumed): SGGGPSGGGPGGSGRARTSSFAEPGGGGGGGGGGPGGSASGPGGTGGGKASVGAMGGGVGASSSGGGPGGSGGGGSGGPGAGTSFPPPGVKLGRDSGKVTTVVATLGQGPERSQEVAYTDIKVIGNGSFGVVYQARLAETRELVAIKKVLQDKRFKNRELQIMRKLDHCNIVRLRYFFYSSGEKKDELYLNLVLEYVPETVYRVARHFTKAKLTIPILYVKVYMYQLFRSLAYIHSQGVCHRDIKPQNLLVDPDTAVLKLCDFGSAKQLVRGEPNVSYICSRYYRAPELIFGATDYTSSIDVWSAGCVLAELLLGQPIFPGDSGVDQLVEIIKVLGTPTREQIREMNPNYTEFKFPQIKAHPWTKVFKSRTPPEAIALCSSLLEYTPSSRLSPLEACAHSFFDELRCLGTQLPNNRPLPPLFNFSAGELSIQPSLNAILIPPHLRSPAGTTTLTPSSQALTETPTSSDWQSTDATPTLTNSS
Chain of BMP-2-inducible protein kinase (Homo sapiens) (Q9NSY1 whole entry, looked up): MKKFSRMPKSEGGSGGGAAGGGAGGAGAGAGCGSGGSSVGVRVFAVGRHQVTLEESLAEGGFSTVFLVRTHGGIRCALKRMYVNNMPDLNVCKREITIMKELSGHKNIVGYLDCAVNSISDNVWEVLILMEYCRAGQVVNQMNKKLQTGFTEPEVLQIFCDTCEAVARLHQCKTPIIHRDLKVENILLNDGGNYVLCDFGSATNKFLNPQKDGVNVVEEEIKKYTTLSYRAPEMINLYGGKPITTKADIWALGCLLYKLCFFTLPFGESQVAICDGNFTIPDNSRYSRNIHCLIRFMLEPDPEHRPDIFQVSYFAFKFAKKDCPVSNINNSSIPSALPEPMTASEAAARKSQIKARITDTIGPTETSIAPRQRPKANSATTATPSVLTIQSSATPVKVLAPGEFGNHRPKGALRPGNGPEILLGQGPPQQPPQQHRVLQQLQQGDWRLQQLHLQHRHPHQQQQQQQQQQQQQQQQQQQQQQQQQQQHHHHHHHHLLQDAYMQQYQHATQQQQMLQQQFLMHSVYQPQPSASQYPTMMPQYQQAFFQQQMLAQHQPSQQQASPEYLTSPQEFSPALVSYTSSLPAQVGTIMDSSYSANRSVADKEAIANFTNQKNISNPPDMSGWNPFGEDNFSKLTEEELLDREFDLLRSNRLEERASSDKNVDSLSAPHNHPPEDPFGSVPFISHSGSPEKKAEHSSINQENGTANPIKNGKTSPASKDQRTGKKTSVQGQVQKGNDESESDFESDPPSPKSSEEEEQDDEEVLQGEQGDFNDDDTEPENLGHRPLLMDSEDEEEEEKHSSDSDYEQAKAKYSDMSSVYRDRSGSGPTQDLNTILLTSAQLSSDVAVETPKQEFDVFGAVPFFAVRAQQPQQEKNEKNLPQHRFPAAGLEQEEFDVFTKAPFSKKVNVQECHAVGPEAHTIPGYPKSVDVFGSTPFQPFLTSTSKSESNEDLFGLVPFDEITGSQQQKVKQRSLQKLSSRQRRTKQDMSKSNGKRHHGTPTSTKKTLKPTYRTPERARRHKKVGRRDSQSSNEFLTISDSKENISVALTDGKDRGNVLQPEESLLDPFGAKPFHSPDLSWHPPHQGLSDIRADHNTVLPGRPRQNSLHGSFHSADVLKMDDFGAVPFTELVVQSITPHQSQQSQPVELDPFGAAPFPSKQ
Chain of Serine/threonine-protein kinase DCLK1 (Homo sapiens) (O15075 whole entry): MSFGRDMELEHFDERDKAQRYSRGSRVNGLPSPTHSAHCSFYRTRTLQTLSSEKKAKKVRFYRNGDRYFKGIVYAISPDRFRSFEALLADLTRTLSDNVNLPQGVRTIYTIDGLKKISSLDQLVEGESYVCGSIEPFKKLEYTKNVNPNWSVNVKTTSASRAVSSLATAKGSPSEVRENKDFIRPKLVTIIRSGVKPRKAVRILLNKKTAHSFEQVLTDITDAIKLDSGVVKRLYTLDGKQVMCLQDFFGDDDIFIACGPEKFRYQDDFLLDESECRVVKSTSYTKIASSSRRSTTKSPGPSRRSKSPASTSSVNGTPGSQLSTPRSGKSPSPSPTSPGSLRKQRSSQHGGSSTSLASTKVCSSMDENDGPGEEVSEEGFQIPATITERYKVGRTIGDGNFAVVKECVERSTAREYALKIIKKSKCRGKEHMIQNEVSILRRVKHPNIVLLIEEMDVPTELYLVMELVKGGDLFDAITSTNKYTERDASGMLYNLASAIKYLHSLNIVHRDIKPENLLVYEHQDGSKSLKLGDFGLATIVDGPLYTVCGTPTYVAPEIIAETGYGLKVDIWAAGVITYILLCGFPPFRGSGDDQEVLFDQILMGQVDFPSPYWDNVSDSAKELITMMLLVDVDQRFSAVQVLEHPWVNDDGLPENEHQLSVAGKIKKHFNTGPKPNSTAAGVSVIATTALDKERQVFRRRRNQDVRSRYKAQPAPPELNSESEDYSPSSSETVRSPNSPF
Chain of Casein kinase I isoform epsilon (Homo sapiens) (P49674 whole entry, looked up, canonical isoform): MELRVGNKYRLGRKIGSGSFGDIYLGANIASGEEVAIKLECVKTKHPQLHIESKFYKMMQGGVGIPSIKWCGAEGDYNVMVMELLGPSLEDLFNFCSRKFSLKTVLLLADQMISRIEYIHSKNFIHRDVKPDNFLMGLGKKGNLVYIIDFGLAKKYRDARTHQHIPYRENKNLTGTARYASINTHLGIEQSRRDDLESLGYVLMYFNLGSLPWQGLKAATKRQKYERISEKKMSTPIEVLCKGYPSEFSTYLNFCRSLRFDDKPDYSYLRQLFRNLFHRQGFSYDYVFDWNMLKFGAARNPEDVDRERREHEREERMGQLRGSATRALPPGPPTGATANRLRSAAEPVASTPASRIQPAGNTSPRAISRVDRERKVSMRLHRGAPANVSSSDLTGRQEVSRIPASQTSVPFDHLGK

As to `C=CCOC(=O)c1cc(-c2ccc(/C=C3/NC(=S)NC3=O)o2)ccc1Cl`, the result in the data set with HL-60 [1] was Active. Also, the Activity in [2] is 95%; in data set [3] it was 110%; with NB-4 [4] it was “Dose-dependent effect”; in [5], 110%; in [6], 118%; in the data set on NB-4 [7] it was “Dose-dependent effect”. Moreover, the Activity in [8] is 103%; in the data set on NB-4 [9], “Dose-dependent effect”; in [10], 114%; in [11], 85%; in the data set with HL-60 [12], “Dose-dependent effect”; in data set [13] it was 100%. Further, the Activity in data set [14] is 91%; with HL-60 [15], “Non-Toxic”; in the data set on HL-60 [16] it was “Dose-dependent effect”; in [17], 111%; with HL-60 [18] it was “Dose-dependent effect”; in data set [19] it was 89%. The Activity entry is “Non-Toxic” with HL-60 [20]; 95% in data set [21]; “Not Active” in [23]; “Non-Toxic” in the data set on NB-4 [25]; “Dose-dependent effect” with HL-60 [26]; 93% in data set [28]. Further, the Activity entry with NB-4 [29] is “Non-Toxic”; in data set [30], “Not Active”. The inhibition entry (in data set [22]; in data set [24]; in the data set on NB-4 [27]) was “Dose-dependent effect” each time. In addition, the Ratio IC50 in the data set filed under Homo sapiens was found to be 6.6.
For `N=C1NC(=O)/C(=C\c2ccc(-c3cccc([N+](=O)[O-])c3)o2)S1`, the Activity came to 80% in data set [5], 79% in data set [13], 93% in [31] and 81% in data set [19].
